Converted amounts (≈) assume the structure as drawn. Like-named read-outs stand apart in the source and are kept apart here.
Assays:
E. coli NCTC 10418 = assay: E. coli exposed to constant concentrations of cephazolin alone; assay type: cell-based, Escherichia coli
Source text: In comparative experiments described in the examples herein, a reference strain of Escherichi coli (E. coli NCTC 10418) was exposed to constant concentrations of cephazolin in the culture medium (see FIGS. 1A and IIA). As these concentrations were varied, the growth of the bacterial culture was changed. […] As concentrations in the medium were increased, there was a major decline in numbers and a delay in regrowth.
The organisms in the media were able to maintain their numbers in a reduced state even in the continuing presence of cephazolin. This outcome is due to the exclusion of cephalosporins by porin channels in the outer cell wall and to the action of cephalosporinase which keeps cephazolin levels at the site(s) of action below that required for full bactericidal effect.
The cephalosporin effect reached a maximum when E. coli growth was reduced to 10 colony forming units(cfu)/ml (see FIG. IIB).

[1] = test system: blood culture isolate of cMRSA; assay: MIC and MBC for the cMRSA isolate; assay type: cell-based, Staphylococcus aureus; conditions: mecA positive
Experimental: The student test was used for statistical analysis with a significant level of 0.05, it was performed using the Sigma Stat 32 program (SPSS Inc 1992-1997).

[2] = test system: blood culture isolate of cMRSA; assay: Kill kinetics and regrowth patterns of cMRSA exposed to gentamicin profiles and constant beta-lactam; assay type: cell-based, Staphylococcus aureus; conditions: for Outcome of exposure: each agent alone
Experimental: FIGS. 5a and 5b Kill kinetics and regrowth patterns of a clinical isolate of cMRSA.
The CMRSA isolate was cultured in the presence of gentamicin (Delta West, Bentleigh, Australia). An overnight culture of cMRSA in brain heart infusion broth (BHIB) (Oxoid, Bainstoke, England) was diluted to 10^7 CFU/ml in 0.1% peptone water (Oxoid, Bainstoke, England). A 1 ml sample of the 10^7 CFU/ml culture was added to the experimental culture broth, resulting in an initial density of 10^6 CFU/ml. In vitro concentration-time modeling of clinical plasma gentamicin concentration-time profiles assumed linear extrapolation of in vivo data as reported previously.^18 (Bastone et al Antimicrobial Agents and Chemotherapy 37(4): 914-917, 1993). […] Other profiles were constructed by linear extrapolation of these profiles and included 7 and 16 mg/l bolus and infusion profiles. Colony counts were performed at times 0, 0.5, 2.5, 4.5, 6.5, 8.5, 10.5, 24.5 and 48.5 hours for bolus profiles and times 0, 1, 3, 5, 7, 9, 11, 25 and 49 hours for infusion profiles.
In the experiments involving cephazolin the concentration was maintained at 4 mg/l in the BHIB for the entire 48.5 hours. For the experiments involving flucloxacillin the concentration of flucloxacillin was maintained at 2 mg/l for 48.5 hours. Colony counts were performed at times 0, 0,5, 2.5, 4.5, 6.5, 8.5, 10.5, 24.5 and 48.5 hours. […] These included cMRSA in a drug free broth, cMRSA exposed to a bolus profile of gentamicin with a target Cpeak 30 of 6 mg/l only, cMRSA exposed to […] of flucloxacillin only.
All experiments involved six replicates. Gentamicin concentrations were measured at times 0, 0.16, 0.33, 0.5, 2.5, 4.5, 6.5, 8.5, 10.5, 24.5 and 48.5 hours. Gentamicin assay concentrations were determined by fluorescence polarisation immunoassay (AxSYM, Abbot, Ill., U.S.A.) which has a threshold for detection of 0.3 mg/liter. […] (Gibaldi et al, pharmaceutics 2nd edn, 1982).
The blood culture cMRSA isolate was exposed to gentamicin in vitro simulating an in vivo bolus dosing regimen with varying 30 minute post dose concentrations of gentamicin. The same organism was then exposed to gentamicin in vitro simulating an in vivo bolus dosing regime with a 30 minute post dose concentration of 6 mg/l and constant concentration of 4 mg/l of cephazolin or 2 mg/l of flucloxacillin for 48 hours.

[3] = test system: Pseudomonas aeruoginosa, ATCC27853; assay: MIC, Pseudomonas reference strain; assay type: cell-based, Pseudomonas aeruginosa
[4] = test system: Pseudomonas aeruoginosa, ATCC27853; assay: Tobramycin concentration-time profile kill study, reference strain; assay type: cell-based, Pseudomonas aeruginosa; conditions: 8 mg/l at 1 hour, reducing until 8.5 hr, then fixed 0.8 mg/l for 16 hours
Experimental: (§1) The range of aminoglycoside antibiotics was extended to include tobramycin, the bacterial species type was extended from Enterobacteriaceae to Pseudomonacea, and the organism response range broadened to include an antibiotic resistant strain in Pseudomonas studies.
(§2) In contrast, the resistant clinical strain required a peak concentration of 18 mg/l combined with a maintained level of 1 mg/l.

[5] = test system: antibiotic resistant strain of Pseudomonas aeruoginosa isolated from a clinical patient; assay: Tobramycin concentration-time profile kill study, resistant clinical strain; assay type: cell-based, Pseudomonas aeruginosa
Experimental: The time boundaries for maintained exposures with aminoglycoside may be 1.0-16 hours, while the required maintained concentrations will be a function of the resistance of the organism as determined by the minimum inhibitory concentration (MIC) of the pathogen isolated in culture and time-concentration requirements of the organism(s) being treated.
as §1, §2

[6] = test system: antibiotic resistant strain of Pseudomonas aeruoginosa isolated from a clinical patient; assay: MIC, antibiotic resistant clinical Pseudomonas strain; assay type: cell-based, Pseudomonas aeruginosa
[7] = 4 mg/l cephazolin alone throughout

## Cc1nnc(SCC2=C(C(=O)O)N3C(=O)[C@@H](NC(=O)Cn4cnnn4)[C@H]3SC2)s1 [cephazolin]
E. coli NCTC 10418; cephalosporin alone, constant concentrations
  Outcome of exposure: not possible to produce a complete kill or eradication
E. coli NCTC 10418; constant concentrations of cephalosporin alone, up to 250 mg/l
  E. coli growth at maximum cephalosporin effect: 10 cfu/ml
E. coli NCTC 10418; lowest concentration of cephazolin, 1.0 mg/l
  Growth of the culture: delayed in relation to control
E. coli NCTC 10418; maintained cephazolin 0.5 mg/L, 0 h
  Bacterial Count: 5.88 ± 0.09 log 10 u/mL
E. coli NCTC 10418; maintained cephazolin 0.5 mg/L, 2 h
  Bacterial Count: 7.43 ± 0.28 log 10 u/mL
E. coli NCTC 10418; maintained cephazolin 0.5 mg/L, 8 h
  Bacterial Count: 8.67 ± 0.24 log 10 u/mL
E. coli NCTC 10418; maintained cephazolin 0.5 mg/L, 24 h
  Bacterial Count: 8.82 ± 0.06 log 10 u/mL
E. coli NCTC 10418; maintained cephazolin 1.0 mg/L, 0 h
  Bacterial Count: 5.83 ± 0.29 log 10 u/mL
E. coli NCTC 10418; maintained cephazolin 1.0 mg/L, 2 h
  Bacterial Count: 6.21 ± 0.76 log 10 u/mL
E. coli NCTC 10418; maintained cephazolin 1.0 mg/L, 8 h
  Bacterial Count: 8.59 ± 0.35 log 10 u/mL
E. coli NCTC 10418; maintained cephazolin 1.0 mg/L, 24 h
  Bacterial Count: 8.79 ± 0.05 log 10 u/mL
E. coli NCTC 10418; maintained cephazolin 2.0 mg/L, 0 h
  Bacterial Count: 5.88 ± 0.07 log 10 u/mL
E. coli NCTC 10418; maintained cephazolin 2.0 mg/L, 2 h
  Bacterial Count: 3.70 ± 0.32 log 10 u/mL
E. coli NCTC 10418; maintained cephazolin 2.0 mg/L, 8 h
  Bacterial Count: 4.98 ± 0.34 log 10 u/mL
E. coli NCTC 10418; maintained cephazolin 2.0 mg/L, 24 h
  Bacterial Count: 8.79 ± 0.05 log 10 u/mL
E. coli NCTC 10418; maintained cephazolin 4.0 mg/L, 0 h
  Bacterial Count: 5.88 ± 0.06 log 10 u/mL
E. coli NCTC 10418; maintained cephazolin 4.0 mg/L, 2 h
  Bacterial Count: 3.61 ± 0.22 log 10 u/mL
E. coli NCTC 10418; maintained cephazolin 4.0 mg/L, 8 h
  Bacterial Count: 4.38 ± 0.42 log 10 u/mL
E. coli NCTC 10418; maintained cephazolin 4.0 mg/L, 24 h
  Bacterial Count: 6.14 ± 0.93 log 10 u/mL
E. coli NCTC 10418; maintained cephazolin 12.5 mg/L, 0 h
  Bacterial Count: 5.85 ± 0.14 log 10 u/mL
E. coli NCTC 10418; maintained cephazolin 12.5 mg/L, 2 h
  Bacterial Count: 3.11 ± 0.26 log 10 u/mL
E. coli NCTC 10418; maintained cephazolin 12.5 mg/L, 8 h
  Bacterial Count: 2.18 ± 0.63 log 10 u/mL
E. coli NCTC 10418; maintained cephazolin 12.5 mg/L, 24 h
  Bacterial Count: 4.77 ± 1.89 log 10 u/mL
E. coli NCTC 10418; maintained cephazolin 50 mg/L, 0 h
  Bacterial Count: 5.93 ± 0.11 log 10 u/mL
E. coli NCTC 10418; maintained cephazolin 50 mg/L, 2 h
  Bacterial Count: 2.17 ± 0.39 log 10 u/mL
E. coli NCTC 10418; maintained cephazolin 50 mg/L, 8 h
  Bacterial Count: 1.55 ± 0.93 log 10 u/mL
E. coli NCTC 10418; maintained cephazolin 50 mg/L, 24 h
  Bacterial Count: 1.56 ± 1.14 log 10 u/mL
E. coli NCTC 10418; maintained cephazolin 75 mg/L, 0 h
  Bacterial Count: 5.82 ± 0.23 log 10 u/mL
E. coli NCTC 10418; maintained cephazolin 75 mg/L, 2 h
  Bacterial Count: 2.09 ± 0.29 log 10 u/mL
E. coli NCTC 10418; maintained cephazolin 75 mg/L, 8 h
  Bacterial Count: 1.11 ± 0.96 log 10 u/mL
E. coli NCTC 10418; maintained cephazolin 75 mg/L, 24 h
  Bacterial Count: 1.05 ± 1.23 log 10 u/mL
E. coli NCTC 10418; maintained cephazolin 100 mg/L, 0 h
  Bacterial Count: 5.85 ± 0.08 log 10 u/mL
E. coli NCTC 10418; maintained cephazolin 100 mg/L, 2 h
  Bacterial Count: 2.01 ± 0.26 log 10 u/mL
E. coli NCTC 10418; maintained cephazolin 100 mg/L, 8 h
  Bacterial Count: 0.86 ± 0.95 log 10 u/mL
E. coli NCTC 10418; maintained cephazolin 100 mg/L, 24 h
  Bacterial Count: 0.70 ± 0.78 log 10 u/mL
E. coli NCTC 10418; maintained cephazolin 200 mg/L, 0 h
  Bacterial Count: 5.86 ± 0.04 log 10 u/mL
E. coli NCTC 10418; maintained cephazolin 200 mg/L, 2 h
  Bacterial Count: 2.16 ± 0.24 log 10 u/mL
E. coli NCTC 10418; maintained cephazolin 200 mg/L, 8 h
  Bacterial Count: 0.78 ± 0.87 log 10 u/mL
E. coli NCTC 10418; maintained cephazolin 200 mg/L, 24 h
  Bacterial Count: 1.43 ± 0.74 log 10 u/mL
E. coli NCTC 10418; maintained cephazolin 250 mg/L, 0 h
  Bacterial Count: 5.81 ± 0.03 log 10 u/mL
E. coli NCTC 10418; maintained cephazolin 250 mg/L, 2 h
  Bacterial Count: 1.82 ± 0.44 log 10 u/mL
E. coli NCTC 10418; maintained cephazolin 250 mg/L, 8 h
  Bacterial Count: 1.22 ± 0.96 log 10 u/mL
E. coli NCTC 10418; maintained cephazolin 250 mg/L, 24 h
  Bacterial Count: 1.61 ± 0.86 log 10 u/mL
[1]
  MBC: 32 µg/mL (≈ 70.4 µM)
  MIC: 32 µg/mL (≈ 70.4 µM)
[2]; [7]
  Time at which early bactericidal effect was evident: ≤ 2.5 h
  Time at which regrowth was evident: 24.5 h
[2]
  Outcome of exposure: complete kill or eradication was not achieved

## Cc1onc(-c2c(F)cccc2Cl)c1C(=O)N[C@@H]1C(=O)N2[C@@H]1SC(C)(C)[C@@H]2C(=O)O [flucloxacillin]
[2]
  Outcome of exposure: complete kill or eradication was not achieved

## COc1cccc(OC)c1C(=O)N[C@@H]1C(=O)N2[C@@H]1SC(C)(C)[C@@H]2C(=O)O [methicillin]
[1]; Staphylococcus aureus, read-out: MBC
  MBC: > 32 µg/mL
[1]; Staphylococcus aureus, read-out: MIC
  MIC: 32 µg/mL (≈ 84.1 µM)

## NC[C@H]1O[C@H](O[C@H]2[C@H](O)[C@@H](O[C@H]3O[C@H](CO)[C@@H](O)[C@H](N)[C@H]3O)[C@H](N)C[C@@H]2N)[C@H](N)C[C@@H]1O [tobramycin]
[3]
  MIC: 1 µg/mL (≈ 2.14 µM)
[4]
  Outcome of tobramycin profile: complete kill
[5]; combined with 18 mg/l peak
  Maintained level required: 1 mg/L
[5]; combined with maintained level
  Peak concentration required: 18 mg/L
[6]
  MIC: 2 to 4 µg/mL (≈ 4.28 to 8.56 µM)

From patent publication US6858589B2, “Methods of and compositions for potentiating the action of agents active on cell wall sites of the susceptible bacteria” (priority 1996, dated 2005)
